Measured values published in paper PMC3759356 (Cancer cell, 2013).

Target: T1, BARD1 (Homo sapiens, UniProt Q99728)
T1 sequence (Q99728 568-777 limits assumed): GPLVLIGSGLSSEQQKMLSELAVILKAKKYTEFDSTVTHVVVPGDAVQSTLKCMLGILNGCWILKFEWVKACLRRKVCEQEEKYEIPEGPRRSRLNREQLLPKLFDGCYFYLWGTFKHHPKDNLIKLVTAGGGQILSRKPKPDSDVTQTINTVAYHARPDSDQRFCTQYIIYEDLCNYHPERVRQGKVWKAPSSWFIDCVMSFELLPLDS
Assay: ITC
Assay type: binding

## Nc1ncnc2c1ncn2[C@@H]1O[C@H](COP(=O)(O)OP(=O)(O)OC[C@H]2OC(O)[C@H](O)[C@@H]2O)[C@@H](O)[C@H]1O (stereo partly shown) [ADP-ribose]
  Kd: ~0.25 µM
